PubChem BioAssay (NCI)
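Five concentrations, 48 hours, 96-well plates. GI50: concentration for 50% inhibition of growth. TGI is the concentration that stops growth completely.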

Assays:
Experiment in all cases: DTP human tumour cell line panel, 48 h
[1] = test system: A549 NSCLC
[2] = test system: ACHN renal
[3] = test system: CAKI-1 renal
[4] = test system: EKVX NSCLC
[5] = test system: MCF7 breast
[6] = test system: MDA-MB-435
[7] = test system: SK-MEL-5 melanoma
[8] = test system: SK-OV-3 ovarian
[9] = test system: T-47D breast
[10] = test system: SR leukemia

Nc1ncc(-c2ccc3ncnc(Nc4ccc(F)c(Cl)c4)c3c2)cn1
GI50 [1]: 1.95 µM
TGI [1]: 8.25 µM
GI50 [2]: 0.387 µM
TGI [2]: 2.05 µM
GI50 [3]: 0.367 µM
TGI [3]: 4.02 µM
GI50 [4]: 0.252 µM
TGI [4]: 38 µM
GI50 [5]: 1.49 µM
TGI [5]: 20.5 µM
GI50 [6]: 2.31 µM
TGI [6]: 13.4 µM
GI50 [7]: 2.84 µM
TGI [7]: 9.69 µM
GI50 [8]: 0.634 µM
TGI [8]: 3.96 µM
GI50 [9]: 0.703 µM
TGI [9]: 3.16 µM

O=[N+]([O-])C(=C(Nc1ccccc1)Nc1ccccc1)C(Cl)=C(Cl)Cl
TGI [1]: 35.2 µM
TGI [2]: 30.7 µM
TGI [3]: 33.4 µM
TGI [4]: 33.1 µM
TGI [5]: 34.4 µM
TGI [6]: 28.7 µM
TGI [7]: 29.2 µM
TGI [8]: 68.5 µM
TGI [9]: 50.9 µM

CCCCCCCCCCCCCCCCNc1cccc2ccccc12
TGI [1]: > 100 µM
TGI [2]: > 100 µM
TGI [4]: > 100 µM
TGI [8]: > 100 µM
TGI [10]: > 100 µM

COc1cc(O)c2c(c1)C(=O)c1cc3c(c(O)c1C2=O)C(OC1OC(C)C(OC)C(O)C1OC)C(OC)C(C)(O)C3=O (configuration not stated)
TGI [1]: 16.1 µM
TGI [2]: 12.8 µM
TGI [3]: 11 µM
TGI [4]: 14.5 µM
TGI [5]: 17.1 µM
TGI [6]: 16.1 µM
TGI [7]: 3.86 µM
TGI [8]: 97 µM
TGI [10]: 9.16 µM

Cc1nc(C)c(C(=O)NNC(=O)C[N+](C)(C)C)cc1C(=O)NNC(=O)C[N+](C)(C)C
TGI [1]: > 100 µM
TGI [2]: > 100 µM
TGI [3]: > 100 µM
TGI [4]: > 100 µM
TGI [5]: > 100 µM
TGI [6]: > 100 µM
TGI [7]: > 100 µM
TGI [8]: > 100 µM
TGI [9]: > 100 µM

CC(=O)NC1C(OCc2ccccc2)OC(CO)C(O)C1OCC(=O)N[C@@H](C)C(=O)N[C@H](CCC(=O)NCCCNc1c2ccccc2nc2cccc([N+](=O)[O-])c12)C(N)=O (some centres not stated)
TGI [2]: 0.115 µM
TGI [3]: 0.334 µM
TGI [4]: 0.264 µM
TGI [5]: 2.42 µM
TGI [6]: 0.132 µM
TGI [7]: 0.0383 µM
TGI [8]: 0.99 µM
TGI [10]: 46.7 µM
TGI [9]: 0.25 µM

O=C1CCC(c2ccccc2)=NN1c1nsc2ccccc12
TGI [1]: > 100 µM
TGI [2]: > 100 µM
TGI [4]: > 100 µM
TGI [7]: > 100 µM
TGI [10]: > 100 µM

COc1cc(OC)c2c(=O)cc(-c3ccc(OC)c(OC)c3OC)oc2c1
TGI [1]: > 100 µM
TGI [2]: > 100 µM
TGI [3]: > 100 µM
TGI [4]: > 100 µM
TGI [8]: > 100 µM

CSc1cc(-c2cccs2)sc1-c1cc(SC)c(-c2sc(-c3sc(-c4cccs4)cc3SC)cc2SC)s1
TGI [1]: > 100 µM
TGI [2]: > 100 µM
TGI [3]: > 100 µM
TGI [4]: > 100 µM
TGI [5]: > 100 µM
TGI [6]: > 100 µM
TGI [7]: > 100 µM
TGI [8]: > 100 µM
TGI [9]: > 100 µM

COC(=O)C(Cc1ccc2c(c1)CCC2)Cc1ccc2c(c1)CCC2
TGI [1]: > 100 µM
TGI [2]: > 100 µM
TGI [4]: > 100 µM
TGI [5]: > 100 µM
TGI [6]: > 100 µM
TGI [7]: > 100 µM
TGI [8]: > 100 µM
TGI [10]: > 100 µM
TGI [9]: > 100 µM

C/C(C[n+]1ccccc1)=N\N=C(N)N
TGI [1]: > 100 µM
TGI [2]: > 100 µM
TGI [3]: > 100 µM
TGI [4]: > 100 µM
TGI [5]: > 100 µM
TGI [6]: > 100 µM
TGI [7]: > 100 µM
TGI [8]: > 100 µM
TGI [9]: > 100 µM

CC(O)CNC(=O)C(C)Oc1ccc(OCC2CCCCC2)cc1 (configuration not stated)
TGI [1]: > 100 µM
TGI [2]: > 100 µM
TGI [7]: > 100 µM
TGI [8]: > 100 µM

O=P(O)(O)C(N=C(Nc1ccccc1)Nc1ccccc1)P(=O)(O)O
TGI [1]: > 100 µM
TGI [2]: > 100 µM
TGI [3]: > 100 µM
TGI [4]: > 100 µM
TGI [5]: > 100 µM
TGI [7]: > 100 µM
TGI [8]: > 100 µM
